Assay results published in patent publication US20240252463A1, “METHODS OF TREATING FIBROTIC PATHOLOGIES” (Mayo Foundation for Medical Education and Research, priority 2018, published 2024).

Tests used:
[1] = tested on: bile duct ligation mediated hepatic fibrosis; assay: Bile Duct Ligation model of liver fibrosis; format: in vivo, mouse; conditions: BDL mice, DHX 5 mg/kg i.p. daily from Day 7 for 14 days
Protocol: Bile Duct Ligation: BDL was performed as previously described. Briefly, 8-10 weak old female C57BL/6N underwent either BDL or sham surgery. Mice were anesthetized on Day 0 following IACUC protocol, and the bile duct was ligated using sterile 3/0 silk ligatures. Sham surgery was performed by passing a silk ligature under the bile duct. Starting on Day 7, DHX (5 mg/kg) or vehicle control was administered everyday intraperitoneally (i.p.) for 14 days. Following the final DHX treatment, mice were sacrificed and the livers harvested for analysis of fibrosis.
Histological Scoring: Five μm thick sections were cut from Paraffin embedded lung tissues, and the sections were stained either with hematoxylin and eosin (H&E) or with Masson's Trichrome stain kit (Abcam). […] The severity of interstitial and peribronchiolar lung immature and mature fibrosis was estimated on a numerical scale according to Ashcroft et al. For scoring purposes, all H&E stained slides were systematically scanned at 100× magnification and successive 100× fields were scored. […] The predominant score for each field was recorded. The mean of all scores was calculated for each case. Liver trichrome stained sections were computationally measured using Image J software. […]
Hydroxyproline: Hydroxyproline content was measured using a hydroxyproline assay kit (Biovision) according to the manufacture's instruction with slight modification. […]

YAP/TAZ = YAP/TAZ localization in pulmonary epithelial (NHAEpC) and endothelial (NHMVEC) cells; format: cell-based, human; conditions: FIG. 2b
Protocol: Scale bar represents 100 μm. […] Scale bar represents 100 μm.
ImmunofluorescenceMicroscopy: Cells were plated into 96 well plates (Corning 3603) in their specific growth media and allowed to attach (8 hours). Media was then exchanged for the indicated conditions for each experiment. Cells were fixed in 3.7% formalin (Sigma-Aldrich), permeabilized in 0.25% Triton X-100 (Sigma-Aldrich) and then blocked with 1% BSA for 1 h. Cells or tissue sections were incubated overnight with mouse monoclonal antibody against αSMA (Sigma-Aldrich F3777), and/or a rabbit monoclonal antibody against YAP/TAZ (Cell Signaling D24E4) diluted 1:200 in PBS with 1% BSA. Cells were then washed and exposed to flourescence-conjugated secondary antibodies (Invitrogen) diluted 1:1000 and DAPI (Thermo Fisher Scientific). Images were taken with a Cytation5 (BioTek) microscope. For scoring αSMA positive cells (FIG. 3b), an observer blinded to the treatment conditions counted αSMA-positive cells using a visual threshold for bright fibrous staining; a minimum of 200 cells was counted for each condition. YAP/TAZ localization was quantified (FIG. 2, 6, 8) using Gen5 (Biotek) software. […] Quantification of double positive (YAP/TAZ and αSMA) cells from lung tissue sections (FIG. 4d) was performed similarly; however separate thresholds were established for both YAP/TAZ and αSMA. A minimum of 4000 cells was quantified for each mouse.

αSMA+ stress fibers = assay: TGFβ-induced αSMA+ stress fiber formation; format: cell-based, human; conditions: IMR-90, TGFβ 72 hours, DHX 10 μM from 48-72 hours
Protocol: ImmunofluorescenceMicroscopy: Cells were plated into 96 well plates (Corning 3603) in their specific growth media and allowed to attach (8 hours). Media was then exchanged for the indicated conditions for each experiment. Cells were fixed in 3.7% formalin (Sigma-Aldrich), permeabilized in 0.25% Triton X-100 (Sigma-Aldrich) and then blocked with 1% BSA for 1 h. Cells or tissue sections were incubated overnight with mouse monoclonal antibody against αSMA (Sigma-Aldrich F3777), and/or a rabbit monoclonal antibody against YAP/TAZ (Cell Signaling D24E4) diluted 1:200 in PBS with 1% BSA.

Oc1cc2c(cc1O)[C@H]1c3ccccc3CN[C@@H]1CC2 (racemic) [Dihydrexidine, dihydrexidine]
collagen deposition (hydroxyproline) [1]: trend toward reduced collagen deposition
histological fibrosis (trichrome) [1]: significantly improved histological fibrosis
YAP/TAZ localization in pulmonary epithelial and endothelial cells (YAP/TAZ): had no effect on YAP/TAZ localization
myofibroblastic transition (αSMA+ stress fibers) (αSMA+ stress fibers): reversed this transition
